Results from ChEMBL document CHEMBL3885861, “Open TG-GATES”.
“And” between values parts separate entries of the source, which are not always exact repeats. Equal entries are not always repeated.

Species on record: Rattus norvegicus
Assay: Open TG-GATES - Regimen: Single
Type: toxicity, organism-based, Sprague-Dawley
Set-up: regimen Single, gender Male, age 6 weeks
Conditions: in vivo, po, 0 mg/kg, route gavage, dose level Control; for APTT / Bas / Eos / Fbg / Hb / Ht / Lym / MCH / MCHC / MCV / Mono / Neu / PT / Plat / RBC / Ret / WBC: tissue Blood; for KIDNEY_L / KIDNEY_R / KIDNEY_TOTAL: tissue Kidney; for LIVER: tissue Liver

SMILES: O=C1CN(/N=C/c2ccc([N+](=O)[O-])o2)C(=O)N1 [NITROFURANTOIN]
- TERMINAL_BW (3 h): 220.5 g and 212 g
- APTT (3 h): 20.2 s and 16.2 s
- Bas (3 h): 0%
- Eos (3 h): 0.8% and 1.4%
- Fbg (3 h): 213.2 mg/dL and 223.8 mg/dL
- Hb (3 h): 13.3 g/dL and 12.9 g/dL
- Ht (3 h): 37.7% and 38.8%
- Lym (3 h): 79.2% and 74%
- MCH (3 h): 21.5 pg
- MCHC (3 h): 35.3% and 33.1%
- MCV (3 h): 60.7 fL and 64.8 fL
- Mono (3 h): 2% and 5%
- Neu (3 h): 16.4% and 20.2%
- PT (3 h): 12.9 s and 12 s
- Plat (3 h): 112.1 x10_4/uL and 122.4 x10_4/uL
- RBC (3 h): 620.6 x10_4/ul and 599.8 x10_4/ul
- Ret (3 h): 7.4% and 6.9%
- WBC (3 h): 98.8 x10_2/uL and 73.8 x10_2/uL
- KIDNEY_L (3 h): 1 g and 0.9 g
- KIDNEY_R (3 h): 1 g and 0.9 g
- KIDNEY_TOTAL (3 h): 2 g and 1.9 g
- LIVER (3 h): 10.4 g and 9.4 g
- A/G (3 h, tissue Plasma): 1.7 and 2.2
- ALP (3 h, tissue Plasma): 989 IU/L and 1656.4 IU/L
- ALT (3 h, tissue Plasma): 38.8 IU/L and 39.2 IU/L
- AST (3 h, tissue Plasma): 67.6 IU/L and 66.6 IU/L
- BUN (3 h, tissue Plasma): 11.6 mg/dL and 13 mg/dL
- CRE (3 h, tissue Plasma): 0.4 mg/dL and 0.3 mg/dL
- Ca (3 h, tissue Plasma): 10.8 mg/dL and 11.1 mg/dL
- Cl (3 h, tissue Plasma): 101.6 meq/L and 104 meq/L
- GLC (3 h, tissue Plasma): 190.2 mg/dL and 202 mg/dL
- IP (3 h, tissue Plasma): 8.4 mg/dL and 9.1 mg/dL
- K (3 h, tissue Plasma): 4 meq/L and 4.5 meq/L
- LDH (3 h, tissue Plasma): 180.2 IU/L and 74.6 IU/L
- Na (3 h, tissue Plasma): 140.6 meq/L and 139.2 meq/L
- PL (3 h, tissue Plasma): 135.4 mg/dL and 141.2 mg/dL
- RALB (3 h, tissue Plasma): 3.5 g/dL and 3.8 g/dL
- TC (3 h, tissue Plasma): 73.4 mg/dL and 84.8 mg/dL
- TG (3 h, tissue Plasma): 80.2 mg/dL and 53 mg/dL
- TP (3 h, tissue Plasma): 5.6 g/dL and 5.5 g/dL
- gamma-GTP (3 h, tissue Plasma): 1 IU/L
- TERMINAL_BW (6 h): 219 g and 212.6 g
- APTT (6 h): 19.5 s and 16.2 s
- Bas (6 h): 0%
- Eos (6 h): 1%
- Fbg (6 h): 221.8 mg/dL and 224 mg/dL
- Hb (6 h): 12.9 g/dL and 12.6 g/dL
- Ht (6 h): 36.6% and 38.1%
- Lym (6 h): 75.4% and 75.2%
- MCH (6 h): 21.8 pg and 21 pg
- MCHC (6 h): 35.4% and 33.1%
- MCV (6 h): 61.6 fL and 63.7 fL
- Mono (6 h): 3.4% and 6.6%
- Neu (6 h): 18.8% and 17.2%
- PT (6 h): 12.7 s and 12 s
- Plat (6 h): 108.3 x10_4/uL and 124 x10_4/uL
- RBC (6 h): 594.4 x10_4/ul and 598.8 x10_4/ul
- Ret (6 h): 7.9% and 7.7%
- WBC (6 h): 107.6 x10_2/uL and 78.5 x10_2/uL
- KIDNEY_L (6 h): 1 g and 0.9 g
- KIDNEY_R (6 h): 1 g
- KIDNEY_TOTAL (6 h): 2 g and 1.9 g
- LIVER (6 h): 9.8 g
- A/G (6 h, tissue Plasma): 1.5 and 2.3
- ALP (6 h, tissue Plasma): 798.6 IU/L and 1341.4 IU/L
- ALT (6 h, tissue Plasma): 34.4 IU/L and 35.2 IU/L
- AST (6 h, tissue Plasma): 61 IU/L and 65.8 IU/L
- BUN (6 h, tissue Plasma): 12 mg/dL and 14.8 mg/dL
- CRE (6 h, tissue Plasma): 0.4 mg/dL
- Ca (6 h, tissue Plasma): 10.8 mg/dL and 10.9 mg/dL
- Cl (6 h, tissue Plasma): 102.4 meq/L and 103.8 meq/L
- GLC (6 h, tissue Plasma): 185.8 mg/dL and 193.2 mg/dL
- IP (6 h, tissue Plasma): 8.6 mg/dL and 7.9 mg/dL
- K (6 h, tissue Plasma): 4.2 meq/L and 4.6 meq/L
- LDH (6 h, tissue Plasma): 177 IU/L and 74.4 IU/L
- Na (6 h, tissue Plasma): 140.4 meq/L and 137.2 meq/L
- PL (6 h, tissue Plasma): 137.2 mg/dL and 147 mg/dL
- RALB (6 h, tissue Plasma): 3.2 g/dL and 3.8 g/dL
- TC (6 h, tissue Plasma): 80 mg/dL and 86 mg/dL
- TG (6 h, tissue Plasma): 54 mg/dL and 118.6 mg/dL
- TP (6 h, tissue Plasma): 5.4 g/dL
- gamma-GTP (6 h, tissue Plasma): 1 IU/L and 0.4 IU/L
- TERMINAL_BW (9 h): 214.5 g and 212 g
- APTT (9 h): 19.4 s and 16 s
- Bas (9 h): 0%
- Eos (9 h): 1%
- Fbg (9 h): 216.6 mg/dL and 235.2 mg/dL
- Hb (9 h): 13.5 g/dL and 12.9 g/dL
- Ht (9 h): 38.4% and 39.4%
- Lym (9 h): 77.2% and 72%
- MCH (9 h): 21.4 pg and 21.3 pg
- MCHC (9 h): 35.3% and 32.7%
- MCV (9 h): 60.8 fL and 64.9 fL
- Mono (9 h): 2.8% and 8.8%
- Neu (9 h): 18.2% and 18.4%
- PT (9 h): 12.7 s and 11.8 s
- Plat (9 h): 113.7 x10_4/uL and 107.9 x10_4/uL
- RBC (9 h): 633.4 x10_4/ul and 606 x10_4/ul
- Ret (9 h): 7.1%
- WBC (9 h): 86.1 x10_2/uL and 82.1 x10_2/uL
- KIDNEY_L (9 h): 1 g and 0.9 g
- KIDNEY_R (9 h): 1 g and 0.9 g
- KIDNEY_TOTAL (9 h): 2 g and 1.8 g
- LIVER (9 h): 9.3 g and 10.4 g
- A/G (9 h, tissue Plasma): 1.6 and 2.2
- ALP (9 h, tissue Plasma): 901.6 IU/L and 1778 IU/L
- ALT (9 h, tissue Plasma): 34.4 IU/L and 40.2 IU/L
- AST (9 h, tissue Plasma): 62.2 IU/L and 71 IU/L
- BUN (9 h, tissue Plasma): 11.6 mg/dL and 14.6 mg/dL
- CRE (9 h, tissue Plasma): 0.4 mg/dL and 0.3 mg/dL
- Ca (9 h, tissue Plasma): 10.6 mg/dL and 11.3 mg/dL
- Cl (9 h, tissue Plasma): 102.2 meq/L and 104.4 meq/L
- GLC (9 h, tissue Plasma): 194 mg/dL and 183.2 mg/dL
- IP (9 h, tissue Plasma): 9.3 mg/dL and 7.7 mg/dL
- K (9 h, tissue Plasma): 4 meq/L and 4.9 meq/L
- LDH (9 h, tissue Plasma): 211.8 IU/L and 71.2 IU/L
- Na (9 h, tissue Plasma): 140.2 meq/L and 137.2 meq/L
- PL (9 h, tissue Plasma): 143.8 mg/dL and 168 mg/dL
- RALB (9 h, tissue Plasma): 3.3 g/dL and 3.9 g/dL
- TBIL (9 h, tissue Plasma): 0.1 mg/dL and 0.038 mg/dL
- TC (9 h, tissue Plasma): 78.8 mg/dL and 100.6 mg/dL
- TG (9 h, tissue Plasma): 77.2 mg/dL and 109.6 mg/dL
- TP (9 h, tissue Plasma): 5.3 g/dL and 5.6 g/dL
- gamma-GTP (9 h, tissue Plasma): 0.6 IU/L and 1 IU/L
- TERMINAL_BW (24 h): 232.8 g and 218.4 g
- APTT (24 h): 19 s and 15.6 s
- Bas (24 h): 0%
- Eos (24 h): 1%
- Fbg (24 h): 219.8 mg/dL and 239.4 mg/dL
- Hb (24 h): 13.6 g/dL and 13.4 g/dL
- Ht (24 h): 39.2% and 40.4%
- Lym (24 h): 75.2% and 73%
- MCH (24 h): 22 pg and 21.7 pg
- MCHC (24 h): 34.9% and 33.3%
- MCV (24 h): 63.2 fL and 65.2 fL
- Mono (24 h): 3% and 10.2%
- Neu (24 h): 19.6% and 15.6%
- PT (24 h): 12.5 s and 11.7 s
- Plat (24 h): 119.5 x10_4/uL and 120.8 x10_4/uL
- RBC (24 h): 620.4 x10_4/ul and 619 x10_4/ul
- Ret (24 h): 7% and 6.5%
- WBC (24 h): 95.9 x10_2/uL and 73.9 x10_2/uL
- KIDNEY_L (24 h): 1 g
- KIDNEY_R (24 h): 1.1 g and 1 g
- KIDNEY_TOTAL (24 h): 2.1 g and 2 g
- LIVER (24 h): 11.1 g and 10.1 g
- A/G (24 h, tissue Plasma): 1.4 and 2.4
- ALP (24 h, tissue Plasma): 1022.4 IU/L and 1561.4 IU/L
